Test [1] concerns HeLa (human cervical cancer cells). In words: Inhibition of proliferation of tumor cell lines (MTT), HeLa. It is filed as cell-based. Particulars: Homo sapiens, 72 h, read-out: IC50 value of compound for inhibition of proliferation of tumor cell lines, HeLA. The method in brief: (§1)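 Adherent cells in RPMI 1640 with 10% calf serum were seeded at about 1×10^5·mL^−1 and allowed 24 h to attach. They were then exposed to graded compound concentrations (4 replicate wells) for 72 h at 37° C, 5% CO2. MTT was added for 4 h, formazan dissolved in DMSO, OD read at 570 nm; IC50 from log-concentration vs inhibition-rate regression.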

Test [2] relates to neutrophilic granulocytes. As to the kind of experiment: Neutrophil oxidative burst (luminol chemiluminescence). The note with it: Neutrophil; 0.1 μg/mL; rat neutrophils; (Csample−Ccontrol)/Ccontrol×100%; read-out: Efficiency of compounds in stimulating neutrophil oxidative burst. It is filed as cell-based. Summed up:
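Rat neutrophils isolated from abdominal aorta blood, resuspended in Hanks at 1×10^5 cells/well with 1 mM luminol stock added. Oxidative burst read by chemiluminescence after sample addition; efficiency (%) = (Csample−Ccontrol)/Ccontrol×100%.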

For test [3], the system named is K562 (human leukemia cells). As to the kind of experiment: Inhibition of proliferation of tumor cell lines (MTT), K562. It is filed as cell-based. Particulars: Homo sapiens, K562, 72 h, read-out: IC50 value of compound for inhibition of proliferation of tumor cell lines, K562. Summed up: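 Cells in RPMI 1640 with 10% calf serum; adherent lines seeded at about 1×10^5/mL and attached 24 h, K562 at 2×10^5/mL. Compounds added in quadruplicate, 72 h at 37 °C, 5% CO2; MTT 4 h, DMSO-dissolved formazan read at 570 nm. IC50 from log-concentration versus inhibition-rate regression.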

The test system of test [4] is mouse B16-F10 melanoma cells. In words: Inhibition of proliferation of tumor cell lines (MTT), B16-F10. It is filed as cell-based. Particulars: Mus musculus, B16-F10, 72 h, read-out: IC50 value of compound for inhibition of proliferation of tumor cell lines, B16-F10. The method in brief:
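Mouse B16-F10 melanoma cells, 1×10^5/mL in RPMI 1640 with 10% calf serum, attached 24 h, then exposed to graded compound concentrations in quadruplicate for 72 h at 37 °C, 5% CO2. MTT added for 4 h, read at 570 nm; IC50 by regression of inhibition rate on log concentration.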

For test [5], the system named is BGC-823 (human gastric cancer cells). In words: Inhibition of proliferation of tumor cell lines (MTT), BGC-823. It is filed as cell-based. Particulars: Homo sapiens, BGC-823, 72 h, read-out: IC50 value of compound for inhibition of proliferation of tumor cell lines, BGC-823. The method in brief: as §1
In test [6] the test system is SMMC-7721 (human liver cancer cells). As to the kind of experiment: Inhibition of proliferation of tumor cell lines (MTT), SMMC-7721. It is filed as cell-based. The note with it: Homo sapiens, SMMC-7721, 72 h, read-out: IC50 value of compound for inhibition of proliferation of tumor cell lines, SMMC-7721. Summed up:
as §1

The test system of test [7] is LOVO (human colon cancer cells). As to the kind of experiment: Inhibition of proliferation of tumor cell lines (MTT), LOVO. It is filed as cell-based. The note with it: Homo sapiens, 72 h, read-out: IC50 value of compound for inhibition of proliferation of tumor cell lines, LOVO. Summed up: as §1
A further test has as its system B16-F0 mouse melanoma. As to the kind of experiment: Antitumor activity in B16-F0 mouse melanoma model. Particulars: female C57BL/6J mice, intradermal B16 tumor, skin administration once per day for 3 days, 20 μL/mouse, tumor weight on day 19. It is filed as in vivo. Here is the method: This Example investigated the antitumor activity of compounds in B16-F0 mouse melanoma model.
In vitro passage of B16-F0 tumor source was inoculated subcutaneously into female C57BL/6J mice, and passage was carried out after tumor formation. After passage, the subcutaneous tumor tissue of the tumor-bearing mice was taken and ground with 3 times amount of physiological saline to form a tumor cell suspension, and 0.2 mL/mouse of which was inoculated subcutaneously into the axilla of forelimb of mice, which were used as the tumor-source mice. Female C57BL/6J mice were taken and their hair in an area of 4 cm^2 on the neck and back was shaven. After anesthesia with diethyl ether, B16 tumor source was inoculated intradermally at 0.05 mL/mouse. After 3 days of inoculation, the skin was continuously administered for 3 days, once per day, 20 μL/mouse each time, and in the test, a solvent group as a negative control group was included. On the 19th day of the experiment, the experiment was terminated. After the mice were euthanized, the intradermally transplanted tumors were completely separated and excised, and the tumor was weighed to calculate the tumor inhibition rate. Calculation formula of tumor inhibition rate: tumor inhibition rate (%)=(Wmodel group−Wadministration group)/Wmodel group×100%
The tumor growths of the experimental group and the solvent control group were compared to evaluate the antitumor activity of each compound, and the compound with P<0.05 was considered to be effective.

In test [8] the test system is release of IL-8 by human keratinocytes (HaCaT). As to the kind of experiment: Release of IL-8 by human keratinocytes (HaCaT), IL-8 Elisa. The note with it: Homo sapiens, HaCaT; 0.1 μg/mL; 24 h; (Csample−Ccontrol)/Ccontrol×100%; read-out: Efficiency of compound in stimulating the release of IL-8 by HaCaT cells. It is filed as cell-based. Summed up: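 HaCaT keratinocytes in MEM + 10% FBS, seeded 1×10^4 cells/well for 18-24 h, then switched to 1% FBS medium for 3-6 h. Exposed to a range of compound concentrations for 24 h at 37 °C, 5% CO2. Supernatant IL-8 measured by ELISA; efficiency (%) = (Csample − Ccontrol)/Ccontrol × 100%.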

Test [9] has as its system MCF-7 (human breast cancer cells). In words: Inhibition of proliferation of tumor cell lines (MTT), MCF-7. It is filed as cell-based. The note with it: Homo sapiens, MCF7, MCF-7, 72 h, read-out: IC50 value of compound for inhibition of proliferation of tumor cell lines, MCF-7. Summed up:
as §1

The subject of test [10] is A549 (human lung cancer cells). As to the kind of experiment: Inhibition of proliferation of tumor cell lines (MTT), A549. The note with it: Homo sapiens, A549, 72 h, read-out: IC50 value of compound for inhibition of proliferation of tumor cell lines, A549. It is filed as cell-based. Summed up: as §1

Converted amounts (≈) assume the structure as drawn.

As for `CCCCCCCCCCCC(=O)O[C@@]12C[C@@H](C)[C@]34C=C(C)[C@H](OC(=O)c5c(CC)noc5CC)[C@@]3(O)[C@H](O)C(CO)=C[C@H](C4=O)[C@@H]1C2(C)C` [Compound 22, 3-O-(3,5-diethylisoxazolyl-4-formyl)-13-O-dodecanoyl-ingenol], the IC50 in [1] was 9.59 mg/L (≈ 13.7 µM); in [3], 1.14 mg/L (≈ 1.63 µM); in test [4], 2.96 mg/L (≈ 4.24 µM); in [5], 11.3 mg/L (≈ 16.2 µM); in test [6], 20.1 mg/L (≈ 28.8 µM); in test [7], 11 mg/L (≈ 15.8 µM). Besides, the IC50 worked out at 10.9 mg/L (≈ 15.6 µM) in test [9] and 18.3 mg/L (≈ 26.2 µM) in [10]. In addition, the activation at 0.1 µg/mL in test [2] worked out at 124%; in test [8], 144%. In the test on B16-F0 mouse melanoma, this compound yielded a Tumor-inhibition rate of 39.5%.

The record behind these values is US11753363B2, “13-oxidized ingenol derivative and use thereof” (Tianjin Pharmaceutical Da Ren Tang Group Corp., Ltd. …, priority 2017, dated 2023).
